Patent US7022667B2, “O-derivatized nocathiacin derivatives” (Bristol-Myers Squibb Company, priority 2002, dated 2006)
≈ marks a conversion by molar mass, not a printed value.

Key:
Assay in all cases: MIC, broth micro dilution assay (NCCLS)
Type in all cases: cell-based
[1] = tested on: Staphylococcus aureus A15090; conditions: Mueller-Hinton medium, 35° C., 18 hours
In short: (§1)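 Broth microdilution in Mueller-Hinton medium, with a final inoculum of about 5×10^5 cfu/well. Plates incubated at 35 °C for 18 hours in ambient air. MIC = lowest drug concentration preventing visible growth.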

[2] = tested on: Enterococcus faecalis A20688; conditions: Mueller-Hinton medium, 35° C., 18 hours
In short: as §1

[3] = tested on: Streptococcus pneumoniae A28272; conditions: 50% Mueller-Hinton medium and 50% Todd Hewitt medium, 35° C., 18 hours

MIC (μg/mL) Staphylococcus aureus A15090 [1] | MIC (μg/mL) Enterococcus faecalis A20688 [2] | MIC (μg/mL) Streptococcus pneumoniae A28272 [3] | Compound
4.0 µg/mL (≈ 2.32 µM) | 4.0 µg/mL (≈ 2.32 µM) | 0.5 µg/mL (≈ 0.29 µM) | C=C(NC(=O)c1csc(-c2nc3c(cc2OP(=O)(O)OCCCl)-c2nc(cs2)C(=O)NC(C(C)O)C(=O)NC(=C(C)OC)c2nc(cs2)C(=O)NC2c4nc(cs4)C(=O)NC(COC(=O)c4c5c6c(cccc6n4OP(=O)(O)OCCCl)COC(=O)C(OC4CC(C)(O)C(N(C)C)C(C)O4)C2OC5)c2nc-3cs2)n1)C(N)=O (stereo not drawn) [Example 86]
0.5 µg/mL (≈ 0.322 µM) | 0.125 µg/mL (≈ 0.0806 µM) | 0.015 µg/mL (≈ 0.00967 µM) | C=C(NC(=O)c1csc(-c2nc3c(cc2O)-c2nc(cs2)C(=O)NC(C(C)O)C(=O)NC(=C(C)OC)c2nc(cs2)C(=O)NC2c4nc(cs4)C(=O)NC(COC(=O)c4c5c6c(cccc6n4OCCCN(CC)CC)COC(=O)C(OC4CC(C)(O)C(N(C)C)C(C)O4)C2OC5)c2nc-3cs2)n1)C(N)=O (stereo not drawn) [Example 51]
>128 µg/mL | 128 µg/mL | 0.5 µg/mL | C=C(NC(=O)c1csc(-c2nc3c(cc2OCCCS(=O)(=O)[O-])-c2nc(cs2)C(=O)NC(C(C)O)C(=O)NC(=C(C)OC)c2nc(cs2)C(=O)NC2c4nc(cs4)C(=O)NC(COC(=O)c4c5c6c(cccc6n4OCCCS(=O)(=O)[O-])COC(=O)C(OC4CC(C)(O)C(N(C)C)C(C)O4)C2OC5)c2nc-3cs2)n1)C(N)=O.[Na+].[Na+] (stereo not drawn) [Example 67]
2.0 µg/mL (≈ 1.06 µM) | 2.0 µg/mL (≈ 1.06 µM) | 0.25 µg/mL (≈ 0.133 µM) | C=C(NC(=O)c1csc(-c2nc3c(cc2OCOP(=O)(OC(C)(C)C)OC(C)(C)C)-c2nc(cs2)C(=O)NC(C(C)O)C(=O)NC(=C(C)OC)c2nc(cs2)C(=O)NC2c4nc(cs4)C(=O)NC(COC(=O)c4c5c6c(cccc6n4OCOP(=O)(OC(C)(C)C)OC(C)(C)C)COC(=O)C(OC4CC(C)(O)C(N(C)C)C(C)O4)C2OC5)c2nc-3cs2)n1)C(N)=O (stereo not drawn) [Example 73]
0.03 µg/mL (≈ 0.0215 µM) | 0.06 µg/mL (≈ 0.043 µM) | 0.03 µg/mL (≈ 0.0215 µM) | COC(C)=C1NC(=O)C(C(C)O)NC(=O)c2csc(n2)-c2cc(OC)c(-c3nc(C(N)=O)cs3)nc2-c2csc(n2)C2COC(=O)c3c4c5c(cccc5n3OC)COC(=O)C(OC3CC(C)(O)C(N(C)C)C(C)O3)C(OC4)C(NC(=O)c3csc1n3)c1nc(cs1)C(=O)N2 (stereo not drawn) [Example 83]

More lines, now with the values behind:

Compound | MIC (μg/mL) Staphylococcus aureus A15090 [1] | MIC (μg/mL) Enterococcus faecalis A20688 [2] | MIC (μg/mL) Streptococcus pneumoniae A28272 [3]
C=C(NC(=O)c1csc(-c2nc3c(cc2OCCCS(=O)(=O)[O-])-c2nc(cs2)C(=O)NC(C(C)O)C(=O)N/C(=C(\C)OC)c2nc(cs2)C(=O)NC2c4nc(cs4)C(=O)NC(COC(=O)c4c5c6c(cccc6n4O)COC(=O)C(OC4CC(C)(O)C(N(C)C)C(C)O4)C2OC5)c2nc-3cs2)n1)C(N)=O.[Na+] (stereo not drawn) [Example 28] | 2.0 µg/mL | 32 µg/mL | 0.25 µg/mL
C=C(NC(=O)c1csc(-c2nc3c(cc2O)-c2nc(cs2)C(=O)NC(C(C)O)C(=O)NC(=C(C)OC)c2nc(cs2)C(=O)NC2c4nc(cs4)C(=O)NC(COC(=O)c4c5c6c(cccc6n4OC(=O)NCCCC)COC(=O)C(OC4CC(C)(O)C(N(C)C)C(C)O4)C2OC5)c2nc-3cs2)n1)C(N)=O (stereo not drawn) [Example 15] | ≦0.001 μg/mL | 0.03 µg/mL (≈ 0.0195 µM) | 0.007 µg/mL (≈ 0.00456 µM)
C=C(NC(=O)c1csc(-c2nc3c(cc2O)-c2nc(cs2)C(=O)NC(C(C)O)C(=O)NC(=C(C)OC)c2nc(cs2)C(=O)NC2c4nc(cs4)C(=O)NC(COC(=O)c4c5c6c(cccc6n4OCC(=O)OC)COC(=O)C(OC4CC(C)(O)C(N(C)C)C(C)O4)C2OC5)c2nc-3cs2)n1)C(N)=O (stereo not drawn) [Example 37] | 0.03 µg/mL (≈ 0.0199 µM) | 0.06 µg/mL (≈ 0.0397 µM) | 0.001 µg/mL (≈ 0.000662 µM)
C=C(NC(=O)c1csc(-c2nc3c(cc2O)-c2nc(cs2)C(=O)NC(C(C)O)C(=O)NC(=C(C)OC)c2nc(cs2)C(=O)NC2c4nc(cs4)C(=O)NC(COC(=O)c4c5c6c(cccc6n4OC(=O)NC)COC(=O)C(OC4CC(C)(O)C(N(C)C)C(C)O4)C2OC5)c2nc-3cs2)n1)C(N)=O (stereo not drawn) [Example 60] | 0.125 µg/mL (≈ 0.0836 µM) | 0.06 µg/mL (≈ 0.0401 µM) | 0.001 µg/mL (≈ 0.000669 µM)
C=C(NC(=O)c1csc(-c2nc3c(cc2O)-c2nc(cs2)C(=O)NC(C(C)O)C(=O)NC(=C(C)OC)c2nc(cs2)C(=O)NC2c4nc(cs4)C(=O)NC(COC(=O)c4c5c6c(cccc6n4OC(=O)NCCOCCOCCOCCOC)COC(=O)C(OC4CC(C)(O)C(N(C)C)C(C)O4)C2OC5)c2nc-3cs2)n1)C(N)=O (stereo not drawn) [Example 62] | 0.125 µg/mL (≈ 0.0748 µM) | 0.125 µg/mL (≈ 0.0748 µM) | 0.015 µg/mL (≈ 0.00898 µM)
C=C(NC(=O)c1csc(-c2nc3c(cc2O)-c2nc(cs2)C(=O)NC(C(C)O)C(=O)NC(=C(C)OC)c2nc(cs2)C(=O)NC2c4nc(cs4)C(=O)NC(COC(=O)c4c5c6c(cccc6n4OCCC(=O)[O-])COC(=O)C(OC4CC(C)(O)C(N(C)C)C(C)O4)C2OC5)c2nc-3cs2)n1)C(N)=O.[Na+] (stereo not drawn) [Example 44] | 0.125 µg/mL | 0.25 µg/mL | 0.03 µg/mL
C=C(NC(=O)c1csc(-c2nc3c(cc2O)-c2nc(cs2)C(=O)NC(C(C)O)C(=O)NC(=C(C)OC)c2nc(cs2)C(=O)NC2c4nc(cs4)C(=O)NC(COC(=O)c4c5c6c(cccc6n4OC)COC(=O)C(OC4CC(C)(O)C(N(C)C)C(C)O4)C2OC5)c2nc-3cs2)n1)C(N)=O (stereo not drawn) [Example 6] | 0.03 µg/mL (≈ 0.0207 µM) | 0.125 µg/mL (≈ 0.0861 µM) | 0.003 µg/mL (≈ 0.00207 µM)
C=C(NC(=O)c1csc(-c2nc3c(cc2O)-c2nc(cs2)C(=O)NC(C(C)O)C(=O)NC(=C(C)OC)c2nc(cs2)C(=O)NC2c4nc(cs4)C(=O)NC(COC(=O)c4c5c6c(cccc6n4OCOCC[Si](C)(C)C)COC(=O)C(OC4CC(C)(O)C(N(C)C)C(C)O4)C2OC5)c2nc-3cs2)n1)C(N)=O (stereo not drawn) [Example 45] | 2.0 µg/mL (≈ 1.28 µM) | 1.0 µg/mL (≈ 0.638 µM) | 0.03 µg/mL (≈ 0.0191 µM)
C=C(NC(=O)c1csc(-c2nc3c(cc2OCC(=O)OC)-c2nc(cs2)C(=O)NC(C(C)O)C(=O)NC(=C(C)OC)c2nc(cs2)C(=O)NC2c4nc(cs4)C(=O)NC(COC(=O)c4c5c6c(cccc6n4OCC(=O)OC)COC(=O)C(OC4CC(C)(O)C(N(C)C)C(C)O4)C2OC5)c2nc-3cs2)n1)C(N)=O (stereo not drawn) [Example 19] | 0.06 µg/mL (≈ 0.0379 µM) | 0.125 µg/mL (≈ 0.079 µM) | 0.003 µg/mL (≈ 0.0019 µM)
C=C(NC(=O)c1csc(-c2nc3c(cc2O)-c2nc(cs2)C(=O)NC(C(C)O)C(=O)NC(=C(C)OC)c2nc(cs2)C(=O)NC2c4nc(cs4)C(=O)NC(COC(=O)c4c5c6c(cccc6n4OCCCS(=O)(=O)[O-])COC(=O)C(OC4CC(C)(O)C(N(C)C)C(C)O4)C2OC5)c2nc-3cs2)n1)C(N)=O.[Na+] (stereo not drawn) [Example 7] | 0.125 µg/mL | 0.125 µg/mL | 0.007 µg/mL
C=C(NC(=O)c1csc(-c2nc3c(cc2OCC(N)=O)-c2nc(cs2)C(=O)NC(C(C)O)C(=O)NC(=C(C)OC)c2nc(cs2)C(=O)NC2c4nc(cs4)C(=O)NC(COC(=O)c4c5c6c(cccc6n4OCC(N)=O)COC(=O)C(OC4CC(C)(O)C(N(C)C)C(C)O4)C2OC5)c2nc-3cs2)n1)C(N)=O (stereo not drawn) [Example 9] | 2.0 µg/mL (≈ 1.29 µM) | 4.0 µg/mL (≈ 2.58 µM) | 0.125 µg/mL (≈ 0.0806 µM)
C=C(NC(=O)c1csc(-c2nc3c(cc2O)-c2nc(cs2)C(=O)NC(C(C)O)C(=O)NC(=C(C)OC)c2nc(cs2)C(=O)NC2c4nc(cs4)C(=O)NC(COC(=O)c4c5c6c(cccc6n4OC(=O)N(C)CCO)COC(=O)C(OC4CC(C)(O)C(N(C)C)C(C)O4)C2OC5)c2nc-3cs2)n1)C(N)=O (stereo not drawn) [Example 61] | 0.03 µg/mL (≈ 0.0195 µM) | 0.03 µg/mL (≈ 0.0195 µM) | 0.0005 µg/mL (≈ 0.000325 µM)
C=C(NC(=O)c1csc(-c2nc3c(cc2OC)-c2nc(cs2)C(=O)NC(C(C)O)C(=O)NC(=C(C)OC)c2nc(cs2)C(=O)NC2c4nc(cs4)C(=O)NC(COC(=O)c4c5c6c(cccc6n4O)COC(=O)C(OC4CC(C)(O)C(N(C)C)C(C)O4)C2OC5)c2nc-3cs2)n1)C(N)=O (stereo not drawn) [Example 1] | 0.015 µg/mL (≈ 0.0103 µM) | 0.015 µg/mL (≈ 0.0103 µM) | 0.003 µg/mL (≈ 0.00207 µM)
